Data published in patent US4372975A, “Substituted 2-benzoyl-4-chloroglycinanilide derivatives, a process for their production, and their use as medicaments” (Pierre Fabre SA, priority 1977, dated 1983).
Structures can show the parent of a compound that is named as a salt. Where two headings read alike, the source gives them in different places.

Columns and labels:
[1] = Solubility; assay type: physicochemical; conditions: for solubility / solubility in water (in words): in water; for solubility in ethanol: in ethanol at 95° GL
[2] = tested on: pentamethylene tetrazole-induced tonic spasms; assay: Anti-pentamethylene tetrazole activity; assay type: in vivo, male mice of the Swiss strain; conditions: for ED50: Mus musculus; for Activity antipentetrazol (VO), at 10 mg: 10 mg (mg/kg)
Method: This test is carried out on a group of 10 male mice of the Swiss strain. 15 minutes after the subcutaneous injection of 125 mg/kg of pentamethylene tetrazole, the mice have tonic spasms of which the outcome is fatal.
For the test, the compound is administered orally 60 minutes before the injection of pentamethylene tetrazole. The animals are observed for 2 hours after administration of the pentamethylene tetrazole. In some particular cases, the tests were confirmed by intraperitoneal administration. The results are expressed by the effective dose DE50 (Goodman et Col.--J. Pharmacol. 108, 1953).
As Japanese Pat. No. 148,340 has been cited in copending application Ser. No. 916,651, filed June 19, 1978, comparisons between compounds of this closest prior art and the compounds of the invention were undertaken in the form of a controlled study.
The major consideration surrounded the similarity in the compounds, particularly in the substitution at the R position. The study compared ten compounds of the invention, which differed from the Japanese prior art only in that the compounds of the invention are alkylated at the R position while the prior art compounds are all hydrogenated at that position.
The compounds were tested for anti-pentamethylene tetrazole activity, the test described on p.

[3] = Toxicity test (LD50, Miller and Tainter); conditions: mouse, in vivo, mice
Method: The compounds according to the invention were subjected to toxicity tests. It was tested in batches of 10 mice by oral, intraperitoneal and, in some cases, intravenous administration and was calculated in accordance with Miller and Tainter's method (Proc. Soc. exper. Biol. Med., 1944, 57, 261).

[4] = tested on: male Swiss mice; assay: Rota-Rod test; assay type: in vivo; conditions: falls off rod in less than 2 minutes
Method: This test is carried out on male Swiss mice. The mouse is placed on a 3 cm diameter wooden rod rotating at 5 revolutions per minute. The mice which succeed in remaining on the rod for at least 3 minutes in successive tests are selected and gathered into groups of 10 for the test of each dose. If the mouse falls off the rod in less than 2 minutes, the tested compound is considered to be effective. The results are expressed by the effective dose DE50 according to N. W. Dunham and T. S. Miva--J. amer. pharm. Ass., 1957, 46, 208.

[5] = po, prior art comparison, VO, dose giving 50% inhibition, read-out: Activity antipentetrazol (VO), 50% inhibition
[6] = oral, 60 min before 125 mg/kg s.c. pentamethylene tetrazole, male Swiss mice, read-out: anti-pentamethylene tetrazole activity DE50 P.O.
[7] = ip, intraperitoneal, read-out: DL50 I.P.

## CNCC(=O)N(C)c1ccc(Cl)cc1C(=O)c1ccccc1 [Example 3, N,N'-Dimethyl-(2-benzoyl-4-chloro)-glycinanilide hydrochloride]
[1]
  solubility: 150 mg/mL
[2]; [5]
  ED50: 1.7 mg/kg

## O=C(CNCc1ccccc1)Nc1ccc(Cl)cc1C(=O)c1ccccc1 [reference compound]
[2]; prior art comparison, VO
  Activity antipentetrazol (VO), at 10 mg: inactive

## CCN(CCO)CC(=O)N(C)c1ccc(Cl)cc1C(=O)c1ccccc1 [Example 15, N-Methyl-N'-ethyl-N'-(2'-hydroxyethyl)-(2-benzoyl-4-chloro)-glycinanilide]
[1]
  solubility in dimethyl formamide: 30%
  solubility in ethanol: 10%
  solubility in water (in words): insoluble
[2]; [6]
  ED50: 2.9 mg/kg
[3]; [7]
  LD50: 150 mg/kg
[3]; oral, read-out: DL50 oral
  LD50: 550 mg/kg

## C=CCNCC(=O)N(C)c1ccc(Cl)cc1C(=O)c1ccccc1 [Example 7, N-methyl-N'-allyl-(2-benzoyl-4-chloro)-glycinanilide hydrochloride]
[1]
  solubility: 30 mg/mL
[2]; [6]
  ED50: 1.9 mg/kg
[3]; [7]
  LD50: 500 mg/kg
[3]; oral, read-out: DL50 oral
  LD50: > 1000 mg/kg

## C#CC(C)(C)NCC(=O)Nc1ccc(Cl)cc1C(=O)c1ccccc1 [reference compound]
[2]; prior art comparison, VO
  Activity antipentetrazol (VO), at 10 mg: inactive

## CN1C(=O)CN=C(c2ccccc2)c2cc(Cl)ccc21 [diazepam, reference compound]
[2]; [6]
  ED50: 1 mg/kg

## CN(C(=O)CN1CCOCC1)c1ccc(Cl)cc1C(=O)c1ccccc1 [Example 18, N-Methyl-2-morpholino-(2'-benzoyl-4'-chloro)-acetanilide hydrochloride]
[1]
  solubility: 100 mg/mL
[2]; ip, intraperitoneal, 125 mg/kg s.c. pentamethylene tetrazole, male Swiss mice, read-out: anti-pentamethylene tetrazole activity DE50 I.P.
  ED50: 1.4 mg/kg
[2]; [6]
  ED50: 3.3 mg/kg
[4]
  Rota Rod DE50 V.O.: 60
[3]; [7]
  LD50: 750 mg/kg
[3]; intravenous, read-out: DL50 I.V.
  LD50: 103 mg/kg
[3]; oral, read-out: DL50 oral
  LD50: 1700 mg/kg

## CN(C(=O)CNCc1ccccc1)c1ccc(Cl)cc1C(=O)c1ccccc1 [Example 6, N-Methyl-N'-benzyl-(2-benzoyl-4-chloro)-glycinanilide hydrochloride]
[1]
  solubility: 25 mg/mL

## CN(CCO)CC(=O)Nc1ccc(Cl)cc1C(=O)c1ccccc1 [R = H, R1 = CH3, R2 = CH2CH2 OH, reference compound]
[2]; prior art comparison, VO
  Activity antipentetrazol (VO), at 10 mg: inactive

## CC(CNCC(=O)N(C)c1ccc(Cl)cc1C(=O)c1ccccc1)c1ccccc1 (stereo not drawn)
[2]; [5]
  ED50: 2.9 mg/kg

## CN1CCN(CC(=O)N(C)c2ccc(Cl)cc2C(=O)c2ccccc2)CC1 [Example 22, N-Methyl-4'-methyl-2-piperazino-(2-benzoyl-4-chloro)-acetanilide]
[1]
  solubility in dimethyl formamide: 5%
  solubility in ethanol: 5%
  solubility in water (in words): insoluble
[3]; [7]
  LD50: 500 mg/kg
[3]; oral, read-out: DL50 oral
  LD50: 1000 mg/kg

## CN(C(=O)CN1CCCCC1)c1ccc(Cl)cc1C(=O)c1ccccc1 [Example 17, N-Methyl-2-piperidino-(2'-benzoyl-4'-chloro)-acetanilide hydrochloride]
[1]
  solubility: 500 mg/mL

## COCCNCC(=O)N(C)c1ccc(Cl)cc1C(=O)c1ccccc1 [Example 5, N-Methyl-N'-(2'-methoxyethyl)-(2-benzoyl-4-chloro)-glycinanilide hydrochloride]
[1]
  solubility: 500 mg/mL
[2]; [6]
  ED50: 2.6 mg/kg
[3]; [7]
  LD50: 300 mg/kg
[3]; oral, read-out: DL50 oral
  LD50: 750 mg/kg

## CCC(CO)(CO)NCC(=O)N(C)c1ccc(Cl)cc1C(=O)c1ccccc1 [Example 13, N-Methyl-N'-(1'-ethyl-1'-hydroxymethyl-2'-hydroxyethyl)-(2-benzoyl-4-chloro)-glycinanilide hydrochloride]
[1]
  solubility: 500 mg/mL

## C=CCNCC(=O)Nc1ccc(Cl)cc1C(=O)c1ccccc1 [R = H, R1 = H, R2 = CH2CHCH2, reference compound]
[2]; prior art comparison, VO
  Activity antipentetrazol (VO), at 10 mg: inactive

## COCCNCC(=O)Nc1ccc(Cl)cc1C(=O)c1ccccc1 [R = H, R1 = H, R2 = CH2CH2OCH3, reference compound]
[2]; prior art comparison, VO
  Activity antipentetrazol (VO), at 10 mg: inactive

## C#CC(C)(C)NCC(=O)N(C)c1ccc(Cl)cc1C(=O)c1ccccc1 [drawing 31]
[2]; [5]
  ED50: 2.3 mg/kg

## CNCC(=O)Nc1ccc(Cl)cc1C(=O)c1ccccc1 [R = H, R1 = H, R2 = CH3, reference compound]
[2]; prior art comparison, VO
  Activity antipentetrazol (VO), at 10 mg: inactive

## CN(C(=O)CNC1CC1)c1ccc(Cl)cc1C(=O)c1ccccc1 [Example 10, N-Methyl-N'-cyclopropyl-(2-benzoyl-4-chloro)-glycinanilide hydrochloride]
[1]
  solubility: 13 mg/mL
[2]; [6]
  ED50: 0.8 mg/kg

## CN(C(=O)CN(C)C1CCCCC1)c1ccc(Cl)cc1C(=O)c1ccccc1 [Example 20, N,N'-Dimethyl-N'-cyclohexyl-(2-benzoyl-4-chloro)-glycinanilide hydrochloride]
[1]
  solubility: 20 mg/mL
[2]; [6]
  ED50: 1.9 mg/kg
[3]; [7]
  LD50: > 500 mg/kg
[3]; oral, read-out: DL50 oral
  LD50: > 1000 mg/kg

## CN(C(=O)CN(CCO)CCO)c1ccc(Cl)cc1C(=O)c1ccccc1 [Example 16, N-Methyl-N',N'-bis-(2'-hydroxyethyl)-(2-benzoyl-4-chloro)-glycinanilide hydrochloride]
[1]
  solubility: 50 mg/mL
[2]; [6]
  ED50: 3.4 mg/kg
[3]; [7]
  LD50: > 500 mg/kg
[3]; oral, read-out: DL50 oral
  LD50: > 1000 mg/kg

## C#CC1(NCC(=O)N(C)c2ccc(Cl)cc2C(=O)c2ccccc2)CCCCC1 [Example 9, N-Methyl-N'-(1'-ethinyl-cyclohexyl)-(2-benzoyl-4-chloro)-glycinanilide hydrochloride]
[1]
  solubility in dimethyl formamide: 2%
  solubility in ethanol: 3%
  solubility in water (in words): insoluble
[2]; [6]
  ED50: 3.9 mg/kg
[3]; [7]
  LD50: 200 mg/kg
[3]; oral, read-out: DL50 oral
  LD50: 560 mg/kg

## CC(C)NCC(=O)N(C)c1ccc(Cl)cc1C(=O)c1ccccc1 [Example 1, N-Isopropyl-N'-methyl-(2-benzoyl-4-chloro)-glycinanilide hydrochloride]
[1]
  solubility: 10 mg/mL

## CC(C)N(CC(=O)N(C)c1ccc(Cl)cc1C(=O)c1ccccc1)C1CCCCC1 [Example 21, N-Methyl-N'-isopropyl-N'-cyclohexyl-(2-benzoyl-4-chloro)glycinanilide hydrochloride]
[1]
  solubility: 50 mg/mL
[2]; [6]
  ED50: 2.2 mg/kg
[3]; [7]
  LD50: 500 mg/kg
[3]; oral, read-out: DL50 oral
  LD50: 1000 mg/kg

## CN(C(=O)Cn1ccnc1)c1ccc(Cl)cc1C(=O)c1ccccc1 [Example 23, N-Methyl-2-imidazolyl-(2-benzoyl-4-chloro)-acetanilide]
[1]
  solubility in dimethyl formamide: 20%
  solubility in ethanol: 10%
  solubility in water (in words): insoluble
[3]; [7]
  LD50: 500 mg/kg
[3]; oral, read-out: DL50 oral
  LD50: 1000 mg/kg

## CN(C(=O)CNC(C)(C)CO)c1ccc(Cl)cc1C(=O)c1ccccc1 [Example 12, N-Methyl-N'-(1',1'-dimethyl-2'-hydroxyethyl)-(2-benzoyl-4-chloro)-glycinanilide]
[1]
  solubility in dimethyl formamide: 25%
  solubility in ethanol: 10%
  solubility in water (in words): insoluble

## CC(CNCC(=O)Nc1ccc(Cl)cc1C(=O)c1ccccc1)c1ccccc1 (stereo not drawn) [reference compound]
[2]; prior art comparison, VO
  Activity antipentetrazol (VO), at 10 mg: inactive

## CN(C)CC(=O)N(C)c1ccc(Cl)cc1C(=O)c1ccccc1 [Example 4, N,N',N'-Trimethyl-(2-benzoyl-4-chloro)-glycinanilide]
[1]
  solubility in dimethyl formamide: 20%
  solubility in ethanol: 20%
  solubility in water (in words): insoluble
[2]; [5]
  ED50: 1.7 mg/kg

## C#CC(C)(C)NCC(=O)N(C)c1ccc(Cl)cc1C(=O)c1ccccc1 [Example 2, N-Methyl-N'-1,1-dimethyl-propargyl-(2-benzoyl-4-chloro)-glycinanilide hydrochloride]
[1]
  solubility: 10 mg/mL
[2]; [6]
  ED50: 1.5 mg/kg
[3]; [7]
  LD50: 450 mg/kg
[3]; oral, read-out: DL50 oral
  LD50: > 1000 mg/kg

## CN(C(=O)CNCc1ccccc1)c1ccc(Cl)cc1C(=O)c1ccccc1 [drawing 35]
[2]; [5]
  ED50: 3 mg/kg

## C#CC(CC)(CC)NCC(=O)N(C)c1ccc(Cl)cc1C(=O)c1ccccc1 [Example 8, N-Methyl-N'-(1',1'-diethyl-propargyl)-(2-benzoyl-4-chloro)-glycinanilide hydrochloride]
[1]
  solubility in dimethyl formamide: 1%
  solubility in ethanol: 1%
  solubility in water (in words): insoluble
[2]; [6]
  ED50: 4.1 mg/kg
[3]; [7]
  LD50: 400 mg/kg
[3]; oral, read-out: DL50 oral
  LD50: 1000 mg/kg

## CNC1=Nc2ccc(Cl)cc2C(c2ccccc2)=[N+]([O-])C1 [chlordiazepoxide, reference compound]
[2]; [6]
  ED50: 5 mg/kg

## CN(C)CC(=O)Nc1ccc(Cl)cc1C(=O)c1ccccc1 [R = H, R1 = CH3, R2 = CH3, reference compound]
[2]; prior art comparison, VO
  Activity antipentetrazol (VO), at 10 mg: inactive
